Assay results reported in patent publication US12667126B2, “Malonyl steviol glycosides and their comestible use” (Firmenich SA, priority 2020, dated 2026).

Legend:
[1] = Sensory testing: sweet capacity in water solution versus sucrose; conditions: dosages 62.5 ppm and 250 ppm, ten experts, dosage for equal sweet intensity from sucrose
Method: Malonyl glycosides 101, 102, 104 and 105 were evaluated in water solution at two selected dosages (62.5 ppm and 250 ppm) to identify their sweet capacity. Ten experts were asked to evaluate sweet, licorice, and sweet lingering intensities on a linear scale. Then, the dosage for equal sweet intensity from sucrose was identified. Sweet capacity for each compound was calculated based on dosage difference between tested compound and sucrose.

[2] = Sensory testing as sweet modifier in SG95 base; conditions: 30 ppm, seven experts, scale -5 to 5 vs reference; for sweet effect as sweet modifier: SG95 (PureCircle) base; for licorice effect as sweet modifier / sweet lingering effect as sweet modifier: SG95 base
Method: (§1) Compound 101 was evaluated as a sweet modifier in SG95 (PureCircle) base at 30 ppm. Seven experts were asked to compare the intensity difference between reference (SG95 base) and Compound 101 was added to the sample. The taste properties (such as sweet, licorice, sweet lingering) were evaluated on a scale of −5 to 5 (−5 denoted strong masking effect and 5 denoted strong enhancing effect, 0 being the intensity of reference).
as §1, with “105” for “101”, “SG95” for “SG95 (PureCircle)”, “added” for “added to the”
as §1, with “104” for “101”, “SG95” for “SG95 (PureCircle)”, “104 adding” for “101 was added to the”

SMILES	sweet capacity (times sweeter than sucrose) [1]	sweet effect as sweet modifier [2]	licorice effect as sweet modifier [2]	sweet lingering effect as sweet modifier [2]
C=C1C[C@@]23CC[C@H]4[C@@](C)(CCC[C@@]4(C)C(=O)O[C@@H]4O[C@H](COC(=O)CC(=O)O)[C@@H](O)[C@H](O)[C@H]4O)[C@@H]2CCC1(O[C@@H]1O[C@H](CO)[C@@H](O)[C@H](O)[C@H]1O)C3 [Compound 104, 6′-O-malonyl rubusoside]	about 120 times sweeter than sucrose	sweet enhancement effect	performed well on tests for licorice and lingering masking effect	performed well on tests for licorice and lingering masking effect
C=C1C[C@@]23CC[C@H]4[C@@](C)(CCC[C@@]4(C)C(=O)O[C@@H]4O[C@H](CO)[C@@H](O)[C@H](O)[C@H]4O)[C@@H]2CCC1(O[C@@H]1O[C@H](CO)[C@@H](O)[C@H](O)[C@H]1O[C@@H]1O[C@H](COC(=O)CC(=O)O)[C@@H](O)[C@H](O)[C@H]1O)C3 [Compound 105, 6″′-O-malonyl stevioside]	about 100 times sweeter than sucrose	sweet enhancement effect	–	–
C=C1C[C@@]23CC[C@H]4[C@@](C)(CCC[C@@]4(C)C(=O)O[C@@H]4O[C@H](COC(=O)CC(=O)O)[C@@H](O)[C@H](O)[C@H]4O)[C@@H]2CCC1(O[C@@H]1O[C@H](CO)[C@@H](O)[C@H](O[C@@H]2O[C@H](CO)[C@@H](O)[C@H](O)[C@H]2O)[C@H]1O[C@@H]1O[C@H](CO)[C@@H](O)[C@H](O)[C@H]1O)C3 [Compound 101, 6′-O-malonyl Rebaudioside A]	about 150 times sweeter than sucrose	sweet enhancement effect	better performance in licorice and sweet lingering masking than Rebaudioside A	better performance in licorice and sweet lingering masking than Rebaudioside A
C=C1C[C@@]2(C)CC[C@H]3[C@@](C)(CCC[C@@]3(C)C(=O)O[C@@H]3O[C@H](COC(=O)CC(=O)O)[C@@H](O)[C@H](O)[C@H]3O)[C@@H]2CCC1(C)O[C@@H]1O[C@H](CO)[C@@H](O)[C@H](O)[C@H]1O[C@@H]1O[C@H](CO)[C@@H](O)[C@H](O)[C@H]1O (some centres unmarked) [Compound 102, 6′-O-malonyl stevioside]	about 150 times sweeter than sucrose	–	–	–
